Source: ChEMBL document CHEMBL3994622, “Design and synthesis of new RAF kinase-inhibiting antiproliferative quinoline derivatives. Part 2: Diarylurea derivatives” (Eur J Med Chem, 2017)

Assays:
Assay type in all cases: functional
HT-29 = test: Growth inhibition of human HT-29 cells assessed as cell growth at 0.1 uM incubated for 48 hrs by sulforhodamine B assay relative to control; conditions: HT-29, 48 h, read-out: Activity
UACC-62 = test: Growth inhibition of human UACC62 cells assessed as cell growth at 10 uM incubated for 48 hrs by sulforhodamine B assay relative to control; conditions: UACC-62, 48 h, read-out: Activity
MDA-MB-435 = test: Growth inhibition of human MDA-MB-435 cells assessed as cell growth at 0.1 uM incubated for 48 hrs by sulforhodamine B assay relative to control; conditions: MDA-MB-435, 48 h, read-out: Activity
SW-620 = test: Growth inhibition of human SW620 cells assessed as cell growth at 0.1 uM incubated for 48 hrs by sulforhodamine B assay relative to control; conditions: SW-620, 48 h, read-out: Activity
NCI/ADR-RES [1] = test: Growth inhibition of human NCI/ADR-RES cells assessed as cell growth at 100 uM incubated for 48 hrs by sulforhodamine B assay relative to control; conditions: read-out: Activity
SF-295 = test: Growth inhibition of human SF295 cells assessed as cell growth at 0.1 uM incubated for 48 hrs by sulforhodamine B assay relative to control; conditions: SF-295, 48 h, read-out: Activity
OVCAR-8 = test: Growth inhibition of human OVCAR8 cells assessed as cell growth at 10 uM incubated for 48 hrs by sulforhodamine B assay relative to control; conditions: OVCAR-8, 48 h, read-out: Activity
SNB-75 [2] = test: Growth inhibition of human SNB75 cells assessed as cell growth at 10 uM incubated for 48 hrs by sulforhodamine B assay relative to control; conditions: SNB-75, 48 h, read-out: Activity
ACHN = test: Growth inhibition of human ACHN cells assessed as cell growth at 0.01 uM incubated for 48 hrs by sulforhodamine B assay relative to control; conditions: read-out: Activity
OVCAR-5 = test: Growth inhibition of human OVCAR5 cells assessed as cell growth at 100 uM incubated for 48 hrs by sulforhodamine B assay relative to control; conditions: OVCAR-5, 48 h, read-out: Activity
SNB-19 [3] = test: Growth inhibition of human SNB19 cells assessed as cell growth at 0.1 uM incubated for 48 hrs by sulforhodamine B assay relative to control; conditions: SNB-19, 48 h, read-out: Activity
NCI/ADR-RES [4] = test: Growth inhibition of human NCI/ADR-RES cells assessed as cell growth at 1 uM incubated for 48 hrs by sulforhodamine B assay relative to control; conditions: read-out: Activity
HCT-15 = test: Growth inhibition of human HCT15 cells assessed as cell growth at 0.1 uM incubated for 48 hrs by sulforhodamine B assay relative to control; conditions: HCT-15, 48 h, read-out: Activity
BT-549 = test: Growth inhibition of human BT549 cells assessed as cell growth at 0.1 uM incubated for 48 hrs by sulforhodamine B assay relative to control; conditions: BT-549, 48 h, read-out: Activity
SK-MEL-5 = test: Growth inhibition of human SK-MEL-5 cells assessed as cell growth at 10 uM incubated for 48 hrs by sulforhodamine B assay relative to control; conditions: SK-MEL-5, 48 h, read-out: Activity
SNB-75 [5] = test: Growth inhibition of human SNB75 cells assessed as cell growth at 0.1 uM incubated for 48 hrs by sulforhodamine B assay relative to control; conditions: SNB-75, 48 h, read-out: Activity
UO-31 [6] = test: Growth inhibition of human UO31 cells assessed as cell growth at 100 uM incubated for 48 hrs by sulforhodamine B assay relative to control; conditions: UO-31, 48 h, read-out: Activity
UO-31 [7] = test: Growth inhibition of human UO31 cells assessed as cell growth at 10 uM incubated for 48 hrs by sulforhodamine B assay relative to control; conditions: UO-31, 48 h, read-out: Activity
HCC 2998 = test: Growth inhibition of human HCC2998 cells assessed as cell growth at 0.3 uM incubated for 48 hrs by sulforhodamine B assay relative to control; conditions: HCC 2998, 48 h, read-out: Activity
MOLT-4 = test: Growth inhibition of human MOLT4 cells assessed as cell growth at 0.003 uM incubated for 48 hrs by sulforhodamine B assay relative to control; conditions: MOLT-4, 48 h, read-out: Activity
A498 = test: Growth inhibition of human A498 cells assessed as cell growth at 0.3 uM incubated for 48 hrs by sulforhodamine B assay relative to control; conditions: A498, 48 h, read-out: Activity
CAKI-1 [8] = test: Growth inhibition of human Caki1 cells assessed as cell growth at 3 uM incubated for 48 hrs by sulforhodamine B assay relative to control; conditions: CAKI-1, 48 h, read-out: Activity
NCI-H460 = test: Growth inhibition of human NCI-H460 cells assessed as cell growth at 30 uM incubated for 48 hrs by sulforhodamine B assay relative to control; conditions: NCI-H460, 48 h, read-out: Activity
CAKI-1 [9] = test: Growth inhibition of human Caki1 cells assessed as cell growth at 0.003 uM incubated for 48 hrs by sulforhodamine B assay relative to control; conditions: CAKI-1, 48 h, read-out: Activity
NCI-H23 [10] = test: Growth inhibition of human NCI-H23 cells assessed as cell growth at 0.003 uM incubated for 48 hrs by sulforhodamine B assay relative to control; conditions: NCI-H23, 48 h, read-out: Activity
NCI-H322M = test: Growth inhibition of human NCI-H322M cells assessed as cell growth at 0.003 uM incubated for 48 hrs by sulforhodamine B assay relative to control; conditions: read-out: Activity
SNB-19 [11] = test: Growth inhibition of human SNB19 cells assessed as cell growth at 0.3 uM incubated for 48 hrs by sulforhodamine B assay relative to control; conditions: SNB-19, 48 h, read-out: Activity
SK-MEL-2 = test: Growth inhibition of human SK-MEL-2 cells assessed as cell growth at 0.003 uM incubated for 48 hrs by sulforhodamine B assay relative to control; conditions: SK-MEL-2, 48 h, read-out: Activity
TK-10 [12] = test: Growth inhibition of human TK10 cells assessed as cell growth at 30 uM incubated for 48 hrs by sulforhodamine B assay relative to control; conditions: TK-10, 48 h, read-out: Activity
NCI-H23 [13] = test: Growth inhibition of human NCI-H23 cells assessed as cell growth at 30 uM incubated for 48 hrs by sulforhodamine B assay relative to control; conditions: NCI-H23, 48 h, read-out: Activity
U-251 = test: Growth inhibition of human U251 cells assessed as cell growth at 30 uM incubated for 48 hrs by sulforhodamine B assay relative to control; conditions: U-251, 48 h, read-out: Activity
UACC-257 = test: Growth inhibition of human UACC257 cells assessed as cell growth at 30 uM incubated for 48 hrs by sulforhodamine B assay relative to control; conditions: UACC-257, 48 h, read-out: Activity
HCT-116 = test: Growth inhibition of human HCT116 cells assessed as cell growth at 0.03 uM incubated for 48 hrs by sulforhodamine B assay relative to control; conditions: HCT-116, 48 h, read-out: Activity
TK-10 [14] = test: Growth inhibition of human TK10 cells assessed as cell growth at 10 uM incubated for 48 hrs by sulforhodamine B assay relative to control; conditions: TK-10, 48 h, read-out: Activity

Row | Structure (SMILES) | growth at 0.1 µM (HT-29) | growth at 10 µM (UACC-62) | growth at 0.1 µM (MDA-MB-435) | growth at 0.1 µM (SW-620) | growth at 100 µM (NCI/ADR-RES [1]) | growth at 0.1 µM (SF-295) | growth at 10 µM (OVCAR-8) | growth at 10 µM (SNB-75 [2]) | growth at 0.01 µM (ACHN) | growth at 100 µM (OVCAR-5) | growth at 0.1 µM (SNB-19 [3]) | growth at 1 µM (NCI/ADR-RES [4]) | growth at 0.1 µM (HCT-15) | growth at 0.1 µM (BT-549) | growth at 10 µM (SK-MEL-5) | growth at 0.1 µM (SNB-75 [5]) | growth at 100 µM (UO-31 [6]) | growth at 10 µM (UO-31 [7]) | growth at 0.3 µM (HCC 2998) | growth at 0.003 µM (MOLT-4) | further results
1 | COc1cc2cc(Oc3ccc(NC(=O)Nc4ccc(Cl)c(Cl)c4)cc3)c(C)nc2cc1OC | 110% | 25% | 92% | 101% | -46% | 87% | 13% | -7% | 101% | -44% | 93% | 76% | 102% | 88% | -9% | 75% | -57% | 6% |  |  | 
2 | COc1cc2cc(Oc3ccc(NC(=O)Nc4ccc(Cl)c(C(F)(F)F)c4)cc3)c(C)nc2cc1OC |  |  |  |  |  |  |  |  |  |  |  |  |  |  |  |  |  |  | 109% | 102% | growth at 0.3 µM (A498): 78%; growth at 3 µM (CAKI-1 [8]): -11%; growth at 30 µM (NCI-H460): -62%; growth at 0.003 µM (CAKI-1 [9]): 93%; growth at 0.003 µM (NCI-H23 [10]): 97%; growth at 0.003 µM (NCI-H322M): 91%; growth at 0.3 µM (SNB-19 [11]): 96%; growth at 0.003 µM (SK-MEL-2): 96%; growth at 30 µM (TK-10 [12]): -46%; growth at 30 µM (NCI-H23 [13]): -75%; growth at 30 µM (U-251): -89%; growth at 30 µM (UACC-257): -60%; growth at 0.03 µM (HCT-116): 91%
3 | COc1cc2cc(Oc3ccc(NC(=O)Nc4cc(C(F)(F)F)cc(C(F)(F)F)c4)cc3)c(C)nc2cc1OC | 97% | -74% | 98% | 100% | -45% | 92% | -46% | -32% | 94% | -78% | 97% | 62% | 94% | 94% | -79% | 74% | -89% | -70% |  |  | growth at 10 µM (TK-10 [14]): 13.2%
4 | Cc1nc2cc(O)c(O)cc2cc1Oc1ccc(NC(=O)Nc2ccc(Cl)c(Cl)c2)cc1 |  |  |  |  |  |  |  |  |  |  |  |  |  |  |  |  |  |  | 97% | 106% | growth at 0.3 µM (A498): 80%; growth at 3 µM (CAKI-1 [8]): 62%; growth at 30 µM (NCI-H460): -44%; growth at 0.003 µM (CAKI-1 [9]): 97%; growth at 0.003 µM (NCI-H23 [10]): 96%; growth at 0.003 µM (NCI-H322M): 103%; growth at 0.3 µM (SNB-19 [11]): 117%; growth at 0.003 µM (SK-MEL-2): 107%; growth at 30 µM (TK-10 [12]): 23%; growth at 30 µM (NCI-H23 [13]): -25%; growth at 30 µM (U-251): 3%; growth at 30 µM (UACC-257): -20%; growth at 0.03 µM (HCT-116): 89%; growth at 10 µM (TK-10 [14]): 85.3%
